Reference: patent US10603289B2, “Process for the manufacture of ajoene derivatives” (DANMARKS TEKNISKE UNIVERSITET, priority 2010, dated 2020)

Columns and labels:
[1] = system: P. aeruginosa PAO1; type: in vivo; settings: day three post-infection; E:Z 1:4 (FIG. 8)
Experimental: Mice were sacrificed on day one or day three post-infection and the contents of bacteria in the lungs were determined. Open squares indicate bacterial lung content per lung for each individual mouse. The median values are indicated with a filled black square. The statistic significance of difference in clearance was tested by a Mann-Whitney U test (analysis of nonparametric data) and p-values for the difference at day one and day three were 0.9 and 0.002 respectively.
In this study ajoene was administered prophylactic and subsequently continued after infection. Injections were given subcutaneous in the peritoneum. We performed three individual in vivo treatment experiments with ajoene in the mouse model of pulmonary infection using the P. aeruginosa PAO1. BALB/c mice were intracheally challenged (at day 0) with alginate beads containing 1.5×10^8 CFU/ml P. aeruginosa. The two groups of mice were either untreated (placebo) or treated with ajoene 25 μg/g mouse once a day. The mice were given two days of prophylactic treatment or placebo prior to bacterial challenge. Treatment was continued for three days. […] When combining the experiments a significant difference on day three was seen (p<0.002) with a 500 fold difference in clearance between the groups (FIG. 7). This is concordant with the results obtained by Bjarnsholt et al (2005) in a similar lung infection model in with raw garlic extract was used as treatment [T. Bjarnsholt et al., Microbiology, 2005, 151, p. 3873-3880].
This highlights that a synthesis providing a sufficiently pure “crude” ajoene product is essential in order to avoid the use of HPLC purification, as this step has a detrimental effect on biological activity. […] (E,Z) ajoene having an E:Z ratio of 1:4 was used.

[2] = system: biofilms of P. aeruginosa PAO1; assay: In vitro flow cell biofilm killing, live dead stains and CSLM; type: cell-based
Experimental: Dead cells are stained with the DNA stain PI (Dark grey/black). The biofilm were visualized with CSLM. C) Implant model treated with ajoene and tobramycin.
3873-3880]. It was however unknown what was the active ingredient in the garlic extract. Thus. biofilms of P. aeruginosa strain were either grown in the presence or absence of 100 μg/ml ajoene. At day three the biofilms were treated with 10 μg/ml tobramycin for 24 hours. […] 10 μg/ml tobramycin was therefore chosen for the present study.

[3] = system: wild-type P. aeruginosa; assay: Foreign-body (silicone tube implant) infection model; type: in vivo, mice; settings: CFU per implant 72 hours after insertion
Experimental: To examine the effect of a combination treatment with ajoene and tobramycin in vivo we used an foreign-body infection model [L. D. Christensen et al., Microbiology, 2007, 153, p. 2312-2320]. Silicone tube implants with a size of 4 mm (inner diameter 4 mm/outer diameter 6 mm) pre-colonized with wild-type P. aeruginosa, were inserted into the peritoneal cavity of mice. Treatments were injected subcutaneously every 24 hours, where ajoene and tobramycin treatment were initiated two days pre-insertion and 24 hours post-insertion, respectively. 72 hours after insertion the implants were removed from the mice and the number of colony-forming units per implant was determined. […] (E,Z) ajoene having an E:Z ratio of 1:4 was used.

| Structure (SMILES) | clearing the pulmonary infection, by ajoene purity [1] | extent of killing, comparison of tobramycin concentrations ([2]; prior treatment study, 10 μg/ml, 100 μg/ml or 340 μg/ml) | killing of the biofilm bacteria, single agent ([2]; tobramycin or ajoene only) | clearing of implants, single treatment versus placebo group [3] |
| --- | --- | --- | --- | --- |
| C=CCSSC=CC[S+]([O-])CC=C (centres unmarked) [95-99.5% purity ajoene] | effective at clearing the pulmonary infection | – | – | – |
| NC[C@H]1O[C@H](O[C@H]2[C@H](O)[C@@H](O[C@H]3O[C@H](CO)[C@@H](O)[C@H](N)[C@H]3O)[C@H](N)C[C@@H]2N)[C@H](N)C[C@@H]1O [tobramycin] | – | no difference in the extent of killing | no or only minor killing | significant difference in clearing |
| C=CCSSC=CC[S+]([O-])CC=C (centres unmarked) [very high purity ajoene] | not effective at clearing the pulmonary infection | – | – | – |
